In patent US20260209152A1, “Substituted Hydroxystilbene Compounds and Derivatives, Synthesis and Uses Thereof” (Kynan Duke IP, LLC, priority 2019, published 2026):
Where two headings read alike, the source gives them in different places.

Experiments:
[1] = tested on: IL-4 secretion from human CD4-positive T-cells stimulated with antiCD2/antiCD3/antiCD28-coated beads; assay: T-cell IL-4 assay (assay number 1297, 1298); type: cell-based; conditions: for Max Eff.: IL-4 (1298): highest effect as percentage of control maximum effect; for Emax: read-out: maximum efficacy, IL-4 secretion
Experimental: Inhibition of IL-4 and IL-2 secretion from human CD4-positive T-cells stimulated with antiCD2/antiCD3/antiCD28-coated beads. LEO Pharma Open Innovation assay number 1297, 1298, 1299.
The inflammatory skin disease atopic dermatitis is characterized by the T-cell cytokines IL-4, IL-13 and IL-22. In the present assay, human T-cells are stimulated with beads coated with antibodies against CD2, CD3 and CD28 to activate the T-cell receptor.
Then the level of secreted of IL-4 is measured in the culture supernatant using electrochemiluminescence (MSD kits, Meso Scale Discovery), IL-2 is measured by proximity homogenous time-resolved fluorescence (HTRF) and the amount of living cells is measured by addition of resazurin (PrestoBlue®) to allow identifying compounds that inhibit T-cell proliferation or viability.
• Peripheral blood mononuclear cells (PBMC) are isolated from fresh human buffy coats by centrifugation on Lymphoprep® following instructions from Sebmate™ (Stemcell). • The cells are resuspended in 30 ml of PBS+2% Serum and counted. • CD4 positive T-cells are isolated from freshly isolated PBMC using EasySep™ humane CD4+ T-cell Isolation Kit (Catalog #17952) and following the manufacturer's protocol. • Cells are spun down and resuspended in freezing medium (X-vivo 15+10% FBS+5% DMSO) • Cells are frozen in aliquots of 3×10^7 cells/vial matching one 384 plate. Cells are place in Coolcell box and place in −80° C. freezer for one day then transferred to the −150° C. freezer in a prechilled box.
• Prepare assay medium: 500 ml X-Vivo 15+5 ml Glutamax (2 mM final)+5 ml pen/strep (100 U/ml final). • Add 5 μL medium to the wells of a 384 well plate (Greiner cat. No 788986). • CD4+ Cells: Thaw frozen cells from −150° C. freezer in 37° C. bath, and pipette the cells into 10 ml medium. Spin 10 min @170 g. • Resuspend pellet in 3.5 ml per 2.5×10^7 cells and add 10 μL per well to the plate (40000 cells/well) • Test compounds: Prepare compound-containing source plate, i.e. titrations in DMSO to be transferred to the assay plate. • Add 25 nL compounds and controls from the source plate to the assay plate (with cells). • Beads (T Cell Activation/Expansion Kit-human, Miltenyi Biotech, cat. no. 130-091-441): Coat beads with antibodies according to the kit procedure. • Add 10 μL beads to each well except for the negative controls. One bead per cell. Add 10 μL medium to the negative controls. • Incubate plates at 37° C., 5% CO2/95% air for 2 days.
• Remove plates from incubation and equilibrate to room temperature for 30 minutes. • IL-4 concentration in 10 μL supernatant is measured using an MSD IL-4 384-plate kit (Custom made) according to manufacturer protocol. • IL-2 concentrations in the supernatant is measured by an IL-2 HTRF kit, CisBio, cat. No 62HIL02PEH. • Add 4 μL medium to white proxi 384-well plates • Add 1 μL supernatant. • Add 4 μL mHTRF mix (each diluted 1:300 in ⅔ reconstitution buffer and ⅓ assay medium). • Spin the plates for 1 minute at 170 g • Seal and incubate overnight and read fluorescence in a plate reader • The amount of viable cells is measured by PrestoBlue® reagent • Add 15 μL diluted PrestoBlue® reagent (resazurin) corresponding to 2.5 μL Prestoblue/well to the assay plate. • Incubate overnight at 37° C./5% CO2. The fluorescence in the wells is measured (Ex615/Em 535).
IL-4 concentration in the supernatants is measured using electrochemiluminescence (MSD kits, Meso Scale Discovery). IL-2 concentration in the supernatants is measured using homogeneous time-resolved fluorescence resonance (TR-FRET). The assay is quantified by measuring fluorescence at 665 nm (proportional to IL-2 concentration) and 620 nm (control). A ratio 665/620*1000 is calculated.
The capacity of the test compound to inhibit IL-4 and IL-2 release is normalized to the signal in the negative control wells with un-stimulated T-cells.

[2] = Cell viability in keratinocyte CCL2 assay (assay number 1243); type: cell-based, human; conditions: human
Text: (§1) • 1. Determination of inhibition of CCL2 release from IL-4, IL-13, IL-22 and IFN-γ-stimulated primary human keratinocytes [assay number 1280] and determination of the effect on cell viability [assay number 1243]. • 2. Determination of inhibition of IL-8 release from IL-17A and TNFα-induced primary human keratinocytes [assay number 1250] and determination of the effect on cell viability [assay number 1244]. • 3. Determination of inhibition of IL-17A secretion from human PBMC stimulated with antiCD3/antiCD28-coated beads [assay number 1321] and determination of the effect on cell viability [assay number 1322]. • 4. Determination of inhibition of IL-4 and IL-2 secretion from human CD4-positive T-cells stimulated with antiCD2/antiCD3/antiCD28-coated beads [assay number 1297, 1298] and determination of the effect on cell viability [assay number 1299].

[3] = tested on: primary human keratinocytes; assay: as above; type: cell-based; conditions: Homo sapiens
Text: as §1

[4] = inhibition of IL-4 secretion, human CD4-positive T-cells, read-out: Abs EC50: IL-4 (1298)
[5] = maximum reduction of cell viability in CCL2 assay, read-out: Max Eff.: Viab (1243)
[6] = Keratinocyte, cell viability in CCL2 assay, read-out: Abs EC50: Viab (1243)
[7] = Homo sapiens, CD4 positive, read-out: EC50, inhibition of IL-4 secretion
[8] = keratinocyte CCL2 assay, read-out: maximum reduction of cell viability
[9] = keratinocyte CCL2 assay, read-out: EC50, cell viability

Row | SMILES | EC50 [1, 4] [nM] | Max Eff.: IL-4 (1298) [1] [%] | cytotoxicity [2, 5] [%] | EC50 [3, 6] [nM] | EC50 [1, 7] [nM] | Emax ([1]; Homo sapiens, CD4 positive) [%] | cytotoxicity [2, 8] [%] | EC50 [3, 9] [nM] | effect on IL-4 release, in words [1]
1 | CCOc1cc(O)cc(/C=C/c2ccc(O)c(O)c2)c1CC=C(C)C [Compound 20, (E)-4-(3-Ethoxy-5-hydroxy-2-(3-methylbut-2-en-1-yl)styryl)benzene-1,2-diol] | 5000 | 54 | 61 | 442 |  |  |  |  | 
2 | COc1cc(/C=C/c2cc(O)cc(OC)c2CC=C(C)C)ccc1NC=O [Compound 27, (E)-N-(4-(5-hydroxy-3-methoxy-2-(3-methylbut-2-en-1-yl)styryl)-2-methoxyphenyl)formamide] | 507 | 79 |  | 41 | 507 | 79 | 67 | 41 | 
3 | COc1cc(/C=C/c2cc(O)cc(OC)c2CC=C(C)C)ccc1NC(=O)CN [Compound 31, (E)-2-amino-N-(4-(5-hydroxy-3-methoxy-2-(3-methylbut-2-en-1-yl)styryl)-2-methoxyphenyl)acetamide] | 5000 | 29 | 86 | 431 |  |  |  |  | 
4 | CCOc1cc(O)cc(/C=C/c2ccc(NC(=O)C(=O)O)c(OC)c2)c1CC=C(C)C [Compound 35, (E)-2-((4-(3-Ethoxy-5-hydroxy-2-(3-methylbut-2-en-1-yl)styryl)-2-methoxyphenyl)amino)-2-oxoacetic acid] | 5000 | 11 | 30 | 5000 |  |  |  |  | 

Further lines, with some results ahead:

Row | EC50 [1, 4] [nM] | SMILES | Max Eff.: IL-4 (1298) [1] [%] | cytotoxicity [2, 5] [%] | EC50 [3, 6] [nM] | EC50 [1, 7] [nM] | Emax ([1]; Homo sapiens, CD4 positive) [%] | cytotoxicity [2, 8] [%] | EC50 [3, 9] [nM] | effect on IL-4 release, in words [1]
5 | 2930 | COc1cc(/C=C/c2cc(O)cc(OC)c2CC=C(C)C)ccc1O [Compound 1, (E)-3-(4-hydroxy-3-methoxystyryl)-5-methoxy-4-(3-methylbut-2-en-1-yl)phenol] | 70 | 77 | 202 |  |  |  |  | 
6 | 503 | CCOc1cc(O)cc(/C=C/c2ccc(O)c(OC)c2)c1CC=C(C)C [Compound 8, (E)-3-Ethoxy-5-(4-hydroxy-3-methoxystyryl)-4-(3-methylbut-2-en-1-yl)phenol] | 82 | 99 | 235 |  |  |  |  | 
7 | 278 | CCOc1cc(O)cc(/C=C/c2ccc(NC=O)c(OC)c2)c1CC=C(C)C [Compound 28, (E)-N-(4-(3-Ethoxy-5-hydroxy-2-(3-methylbut-2-en-1-yl)styryl)-2-methoxyphenyl)formamide] | 80 |  | 124 | 278 | 80 | 68 | 124 | medium potency effect
